Source: patent EP0365763A1, “Antiproliferative cyclic compounds” (priority 1988, dated 1990)
Like-named read-outs stand apart in the source and are kept apart here.

Assays:
[1] = system: L1210 murine leukemia (ATCC CCL 219); assay: Cellular growth in culture, MTT-tetrazolium reduction assay; format: cell-based; conditions: for IC50: Mus musculus, L1210, 72 h, read-out: IC50 FOR CELLS IN CULTURE L1210
Method: (§1) Cellular growth in the presence of the compounds in question was assessed using two cell lines, the Ll2l0 murine leukemia (ATCC CCL 219) and CCRF-CEM, a human lymphoblastic leukemia line of T-cell origin (ATCC CCL 119). Both lines were maintained in RPMI 1640 medium containing 5% heat-inactivated fetal bovine serum without antibiotics.
(§2) IC₅₀ values were determined in 150 microliter microcultures each containing 1500 (Ll2l0) or 4000 (CCRF-CEM) cells established in 96 well plates in growth medium supplemented with 50 IU/ml penicillin and 50 mcg/ml streptomycin. Growth was measured over 3 days (Ll2l0) or 5 days (CCRF-CEM) of continuous exposure to varying concentrations of each test compound added 4 h. after initial cell plating by the MTT-tetrazolium reduction assay of Mosmann (T. J. Immunol. Meth. 65, 55-63 (1983)) modified according to Alley et al. (Cancer Res. 48 589-601 (1988)). Water insoluble derivatives were dissolved in DMSO and diluted to a final concentration of 0.5% solvent in cell cultures.

[2] = system: CCRF-CEM, a human lymphoblastic leukemia line of T-cell origin (ATCC CCL 119); assay: as above; format: cell-based; conditions: for IC50: Homo sapiens, CCRF-CEM, 120 h, read-out: IC50 FOR CELLS IN CULTURE CCRF-CEM; for inhibition at this concentration, CCRF-CEM: at the highest concentration tested, 5 days
Method: as §1, §2

[3] = molecular target: Human thymidylate synthase (TS) (Homo sapiens, UniProt P04818); assay: Thymidylate synthase inhibition constants against 5,10-methylene-tetrahydrofolate; format: biochemical
Method: (§3) Determination of Inhibition Constants Against 5,10-Methylene-Tetrahydrofolate
(§4) Thymidylate synthase inhibition constants K₁ have been determined by the following method. All assays were run at 25°C and initiated by the addition of thymidylate synthase ("TS"). […] All reaction mixtures contained 50 mM Tris at pH 7.8 (the final pH of the reaction was 7.6), 10 mM DTT (dithiothreitol), 1 mM EDTA (ethylenediaminetetraacetic acid), 25 mM MgCl₂, 15 mM H₂CO (formaldehyde) and 25 microM dUMP. When human or Leishmania TS was assayed, 100 micrograms/ml of BSA (bovine serum albumin) was present in the reactions.

[4] = molecular target: E.coli thymidylate synthase (TS) (Escherichia coli, UniProt P0A884); assay: as above; format: biochemical
Method: as §3
as §4, with “reactions. […] Charcoal was used to remove unreacted dUMP from the tritium release reaction mixtures and the resultant water was counted to determine the extent of reaction.” for “reactions.”

[5] = molecular target: L. major thymidylate synthase (TS) (Leishmania major, UniProt P07382); assay: biochemical
Method: as §3
as §4, with “reactions. […] Charcoal was used to remove unreacted dUMP from the tritium release reaction mixtures and the resultant water was counted to determine the extent of reaction.” for “reactions.”

[6] = molecular target: C.albicans thymidylate synthase (TS) (Candida albicans, UniProt P12461); assay: Thymidylate synthase inhibition constants against 5,10-methylene-tetrahydrofolate; format: biochemical
Method: as §3
as §4, with “reactions. […] Charcoal was used to remove unreacted dUMP from the tritium release reaction mixtures and the resultant water was counted to determine the extent of reaction.” for “reactions.”

murine L1210 TS = molecular target: T1, murine L1210 TS (Mus musculus, UniProt P07607); conditions: relative to 10-propargyl-5,8-dideazafolic acid; cited from earlier work
T1 construct: host or cells: L1210

[7] = 3 days of continuous exposure, MTT
[8] = 5 days of continuous exposure, MTT
[9] = 25°C, pH 7.6, 25 microM dUMP, THF 5 to 150 microM, 100 micrograms/ml BSA, read-out: K1TS Human
[10] = 25°C, pH 7.6, 25 microM dUMP, THF 5 to 150 microM, read-out: K1TS C.albicans

Chain of E.coli thymidylate synthase (TS) (P0A884 whole entry): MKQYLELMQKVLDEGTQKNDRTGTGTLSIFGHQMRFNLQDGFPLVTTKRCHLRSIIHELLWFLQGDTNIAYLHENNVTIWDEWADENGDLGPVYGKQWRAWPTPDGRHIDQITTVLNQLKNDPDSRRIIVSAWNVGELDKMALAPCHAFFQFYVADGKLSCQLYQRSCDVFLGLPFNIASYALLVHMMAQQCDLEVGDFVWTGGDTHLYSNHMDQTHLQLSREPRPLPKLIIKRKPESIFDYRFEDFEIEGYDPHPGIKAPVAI
Chain of C.albicans thymidylate synthase (TS) (P12461 whole entry): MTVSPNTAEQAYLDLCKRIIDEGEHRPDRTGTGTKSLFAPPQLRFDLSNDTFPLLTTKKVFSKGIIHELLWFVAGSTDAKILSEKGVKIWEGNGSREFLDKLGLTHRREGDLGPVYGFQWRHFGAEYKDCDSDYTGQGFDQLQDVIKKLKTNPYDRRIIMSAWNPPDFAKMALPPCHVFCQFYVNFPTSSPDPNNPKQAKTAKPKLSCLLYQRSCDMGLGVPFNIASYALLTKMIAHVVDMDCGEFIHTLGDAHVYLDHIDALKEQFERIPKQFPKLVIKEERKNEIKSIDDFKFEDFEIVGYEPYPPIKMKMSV
Chain of Human thymidylate synthase (TS) (P04818 whole entry): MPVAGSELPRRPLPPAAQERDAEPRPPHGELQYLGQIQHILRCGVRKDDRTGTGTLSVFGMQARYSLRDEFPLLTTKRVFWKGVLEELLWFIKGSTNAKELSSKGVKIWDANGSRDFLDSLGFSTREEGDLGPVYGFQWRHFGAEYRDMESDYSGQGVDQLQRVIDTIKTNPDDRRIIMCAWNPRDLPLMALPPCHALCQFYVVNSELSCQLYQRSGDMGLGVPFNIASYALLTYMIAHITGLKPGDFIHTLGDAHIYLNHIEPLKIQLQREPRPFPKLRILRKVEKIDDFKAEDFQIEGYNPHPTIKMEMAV
Chain of L. major thymidylate synthase (TS) (P07382 whole entry): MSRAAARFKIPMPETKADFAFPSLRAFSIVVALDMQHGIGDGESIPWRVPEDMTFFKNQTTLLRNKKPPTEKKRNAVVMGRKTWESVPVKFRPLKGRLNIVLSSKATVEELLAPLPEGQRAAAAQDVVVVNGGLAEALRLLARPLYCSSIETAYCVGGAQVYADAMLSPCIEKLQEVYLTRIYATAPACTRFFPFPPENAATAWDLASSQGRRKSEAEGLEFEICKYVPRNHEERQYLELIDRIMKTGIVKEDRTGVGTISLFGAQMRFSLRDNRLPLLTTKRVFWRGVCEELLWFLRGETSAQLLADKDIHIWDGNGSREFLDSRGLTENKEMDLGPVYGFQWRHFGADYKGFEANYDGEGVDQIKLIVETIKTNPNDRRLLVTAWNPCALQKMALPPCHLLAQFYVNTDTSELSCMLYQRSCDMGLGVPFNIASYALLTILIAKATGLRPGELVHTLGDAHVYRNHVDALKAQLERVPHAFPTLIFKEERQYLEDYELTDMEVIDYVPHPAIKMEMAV
T1 sequence (P07607 whole entry): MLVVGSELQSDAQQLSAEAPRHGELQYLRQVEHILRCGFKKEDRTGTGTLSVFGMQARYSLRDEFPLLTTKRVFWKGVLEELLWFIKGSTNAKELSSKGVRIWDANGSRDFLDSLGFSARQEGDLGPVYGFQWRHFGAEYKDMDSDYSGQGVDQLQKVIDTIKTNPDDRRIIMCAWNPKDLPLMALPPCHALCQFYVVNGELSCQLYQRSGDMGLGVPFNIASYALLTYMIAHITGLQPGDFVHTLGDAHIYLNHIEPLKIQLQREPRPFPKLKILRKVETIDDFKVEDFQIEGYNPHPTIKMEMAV

Compound	IC50 [1, 7] [µM]	IC50 [2, 8] [µM]	Ki [3, 9] [nM]	Ki [4] [µM]	further results
C#CCN(Cc1ccc2nc(C)nc(O)c2c1)c1cccc(CO)c1 [Compound 3-CH2OH]	48	> 55	1200 ± 400	6.7 ± 5.4	–
C#CCN(Cc1ccc2nc(C)nc(O)c2c1)c1ccc(C#N)cc1 [Compound 4-CN]	> 5	> 5	540 ± 740	0.52 ± 0.46	–
C#CCN(Cc1ccc2nc(C)nc(S)c2c1)c1cccc(C(F)(F)F)c1 [Compound D, N-((3,4-dihydro-2-methyl-4-thio-6-quinazolinyl)methyl)-N-(prop-2-ynyl)-3-trifluoromethylaniline]	–	–	17500 ± 11000	3.3 ± 1.4	–
C#CCN(Cc1ccc2nc(-c3ccccc3)[nH]c(=O)c2c1)c1ccc(Cl)cc1 [Compound C]	–	–	–	42.6 ± 23.1	–
C#CCN(Cc1ccc2nc(C)nc(O)c2c1)c1ccc([N+](=O)[O-])c(C(F)(F)F)c1 [3-CF3,4-NO2]	> 5	–	200 ± 250	0.078 ± 0.076	–
C#CCN(Cc1ccc2nc(C)nc(O)c2c1)c1ccc(S(=O)(=O)NCC(=O)O)c(C(F)(F)F)c1 [3-CF3,4-SO2NHCH2COOH]	–	–	–	0.015 ± 0.003	Ki ([5]; 25°C, pH 7.6, 25 microM dUMP, THF 5 to 150 microM, 100 micrograms/ml BSA, read-out: K1TS L. major): 13 nM
C#CCN(Cc1ccc2nc(C)nc(O)c2c1)c1ccc(S(N)(=O)=O)c(C(F)(F)F)c1 [3-CF3,4-SO2NH2]	–	–	580 ± 740	0.19 ± 0.12	Ki [6, 10]: 1900 ± 600 nM
C#CCN(Cc1cccc2c(NC=O)coc12)c1ccc([N+](=O)[O-])cc1 [Compound E, N-((3-Formylamino-7-benzofuranyl)methyl)-N-(prop-2-ynyl)-4-nitroaniline]	–	–	–	70.9 ± 1.8	–
C#CCN(Cc1ccc2nc(C)nc(O)c2c1)c1cccc(C(C)O)c1 (stereo not shown) [3-CH(OH)CH3]	> 50	> 50	9600 ± 6900	11.4 ± 9.8	–
C#CCN(Cc1ccc2nc(C)nc(O)c2c1)c1cccc(CC)c1 [Compound 3-C2H5]	> 5	> 5	23900 ± 20800	24.5 ± 15.7	–
C#CCN(Cc1ccc2nc(C)nc(O)c2c1)c1cccc(Br)c1 [Compound 3-Br]	> 5.5	> 5.5	3600 ± 2600	5.5 ± 1.3	–
C#CCN(Cc1ccc2nc(C)[nH]c(=O)c2c1)c1ccccc1 [—]	> 10	> 10	–	–	–
C#CCN(Cc1ccc2nc(C)nc(O)c2c1)c1ccc([N+](=O)[O-])cc1 [Compound 4-NO2]	4.5	> 4.8	250 ± 210	0.12 ± 0.07	Ki [6, 10]: 1500 ± 1100 nM
C#CCN(Cc1ccc2nc(C)[nH]c(=O)c2c1)c1ccc(S(=O)(=O)c2ccccc2)cc1 [Compound 4-SO2Ph]	–	–	–	–	IC50 [1]: 1 µM; IC50 [2]: 2.5 µM
C#CCN(Cc1ccc2nc(C)[nH]c(=O)c2c1)c1ccc(C#N)c(C(F)(F)F)c1 [3-CF3,4-CN]	> 2.8	> 2.8	–	0.036 ± 0.007	inhibition at this concentration, L1210 ([1]; at the highest concentration tested, printed in the same cell or footnote, 3 days): 15%; inhibition at this concentration, CCRF-CEM [2]: no inhibition; Ki [3]: 81 ± 57 nM; Ki [5]: 30 nM
C#CCN(Cc1ccc2nc(C)nc(O)c2c1)c1cccc(C#C)c1 [3-C≡CH]	> 2.4	> 2.4	–	32.9 ± 14.1	–
C#CCN(Cc1ccc2nc(C)[nH]c(=O)c2c1)c1ccc(S(N)(=O)=O)cc1 [Compound 4-SO2NH2]	20	> 25	160 ± 120	0.25 ± 0.15	inhibition at this concentration, CCRF-CEM [2]: no inhibition; Ki [6, 10]: 1000 nM
C#CCN(Cc1ccc2nc(C)nc(O)c2c1)c1ccc(C#N)c(Cl)c1 [3-Cl, 4-CN]	4.5	> 6.8	–	0.091 ± 0.052	Ki [3]: 87 ± 1 nM; Ki [6]: 280 ± 190 nM
C#CCN(Cc1ccc2nc(C)nc(O)c2c1)c1cccc(C)c1 [Compound 3-CH3]	> 5	> 5	10200 ± 10200	16.3 ± 9.8	Ki [6, 10]: 7700 nM
C#CCN(Cc1ccc2nc(C)[nH]c(=O)c2c1)c1ccc(S(=O)(=O)C(F)(F)F)cc1 [Compound A, N-((3,4-Dihydro-2-methyl-4-oxo-6-quinazolinyl)methyl)-N-(prop-2-ynyl)-4-trifluoromethanesulfonylaniline]	> 2.75	> 2.75	75 ± 35	0.015	inhibition at this concentration, CCRF-CEM [2]: no inhibition
tetraglutamate of 10-propargyl-5,8-dideazafolic acid	–	–	–	–	binds more tightly to murine L1210 TS than the monoglutamate parent compound (murine L1210 TS): 119 fold
C#CCN(Cc1ccc2nc(C)[nH]c(=O)c2c1)c1cccc(C(F)(F)F)c1 [Compound 3-CF3]	> 4.3	> 4.3	–	–	–
C#CCN(Cc1ccc2nc(C)nc(O)c2c1)c1ccc(Cl)cc1 [Compound 4-Cl]	> 4	> 4	5400	5.9 ± 1.8	Ki [6, 10]: 10600 ± 4700 nM
C#CCN(Cc1ccc2nc(C)nc(O)c2c1)c1cccc(I)c1 [Compound 3-I]	> 5.3	> 5.3	4700 ± 3700	49 ± 42.3	Ki [6, 10]: 15500 ± 5500 nM
C#CCN(Cc1ccc2nc(C)[nH]c(=O)c2c1)c1ccc(S(=O)(=O)c2ccccc2)c(C(F)(F)F)c1 [Compound B, N-((3,4-Dihydro-2-methyl-4-oxo-6-quinazolinyl)methyl)-4-(phenylsulfonyl)-N-(prop-2-ynyl)-3-(trifluoromethyl)aniline]	3	6	–	–	–
C#CCN(Cc1ccc2nc(C)nc(O)c2c1)c1ccc(C(=O)c2ccccc2)cc1 [Compound 4-COPh]	6.8	> 8.5	700 ± 190	0.5 ± 0.11	–
